Experimental data published in patent publication US5773422A, “Avermectin formulation” (priority 1996, dated 1998).

Key:
[1] = solubility of avermectins/ivermectin in N-methylpyrrolidone and 2-pyrrolidone formulations; water tolerance (clear solution becomes milky or cloudy as excess water is added); type: physicochemical
Method: Both N-methylpyrrolidone and 2-pyrrolidone have been approved as a safe solvent for injection, but only for oxytetracycline; which is chemically unlike ivermectin. […] Ivermectin can be present in the formulation from 0.1% to 40% (w/v). N-methylpyrrolidone (also known as M-pyrole) can be present from 5% to essentially 100% (v/v) of the formulation. The specific gravity of N-methylpyrrolidone is 1.027 at 25° C. relative to water at 4° C. Additional compounds can be included as desired, e.g. propylene glycol up to 95% by volume, water up to 90% by volume and Clorsulon (an antiparasitic agent frequently co-administered with ivermectin) up to 40% by weight. The formulation can contain water up to amounts which limit avermectin solubility. The maximum amount of water which can be included depends upon the amount of avermectin and the presence of co-solvents such as propylene glycol, and presence of detergent, as illustrated in the Examples. The amount of water which can be present is limited only by avermectin solubility. The presence of too much water can be readily detected because the clear solution becomes milky or cloudy as excess water is added. Where N-methylpyrrolidone is the sole solvent, up to 30% by volume of water can be included in a formulation containing 1% (w/v) ivermectin. If less ivermectin is present, the amount of water can be increased somewhat. If 10% (v/v) propylene glycol is a co-solvent with 20% (w/v) N-methylpyrrolidone, 0.5% ivermectin remains soluble in the presence of water up to about 70% by volume. Compositions containing 2-pyrrolidone completely or partially substituted for N-methylpyrrolidone in the exemplified formulations are equivalent in their solubility properties. As noted above, compositions containing N-methylpyrrolidone are preferred.

[2] = cited from earlier work
[3] = cited from earlier work; remark: listed apart in the source
Rat = conditions: cited from earlier work
[4] = pain and tissue reaction at the injection site; type: in vivo; conditions: compared with 2-pyrrolidone

Row | Compound | water in the presence of which ivermectin remains soluble ([1]; 0.5% ivermectin, 10% (v/v) propylene glycol co-solvent with 20% (w/v) N-methylpyrrolidone) | solubility in 2-pyrrolidone ([1]; 2-pyrrolidone, to permit formulation of therapeutic compositions) | amount of water which can be included (limited by avermectin solubility) ([1]; N-methylpyrrolidone sole solvent, 1% (w/v) ivermectin) | solubility in N-methylpyrrolidone ([1]; N-methylpyrrolidone, to permit formulation of therapeutic compositions) | solubility in 1-butanol ([2]; 1-butanol) [mg/mL] | solubility in 2-propanol ([2]; 2-propanol) [mg/mL] | solubility in acetone ([2]; acetone) [mg/mL] | solubility in methylethylketone ([2]; methylethylketone) [mg/mL] | solubility in water ([2]; water, room temperature) | time in which most of the compound is eliminated by the kidneys [3] [h] | LD50 (Rat; Rat, oral) [mg/kg] | oral toxicity (Rat) | pain at the injection site [4] | tissue reaction [4]
1 | 22,23-dihydroavermectin B1 [ivermectin] | up to 70 % by volume | sufficiently soluble | up to 30 % by volume | sufficiently soluble | 330 | 70 | 81 | 320 | about 0.005 mg per ml | – | – | – | – | –
2 | CN1CCCC1=O [N-methylpyrrolidone] | – | – | – | – | – | – | – | – | – | ≤ 24 | 4200 | very low order of oral toxicity | less pain at the injection site | less tissue reaction
